Structures can show the parent of a compound that is named as a salt. Where two headings read alike, the source gives them in different places. Values belong to the molecule of their own block, whether it stands above or below them.
Tests used:
[1] = system: L1210 cells; assay: In vitro Growth Inhibitory Activity Determination (L1210, MTT); assay type: cell-based; settings: 3 days at 37° C., read-out: ID50 (L1210)
Protocol: L1210 cells were maintained in RPM-1640 a medium supplemented with 10% heat inactivated fetal bovine serum and […] mercaptomethanol/liter medium (RPMI-L). B16 cells were maintained in RPMI-1640 medium supplemented with 15% heat inactivated fetal bovine serum and antibiotics (RPMI-C).
Exponential growing L1210 cells (1×10^3 cells) or B16 cells (2-3×10^3 cells) in 0.1 mL medium were seeded on day 0 in a 96-well microtiter plate. On day 1, 0.1 mL aliquot of medium containing graded concentration of test analogs was added to the initial volume. After incubation at 37° C. in a humidified incubator for 3 days, the plates were centrifuged briefly and […] of the growth medium was removed. Cell cultures were incubated with […] of 3-(4,5-dimethylthiazol-2-yl)-2,5-diphenyltetrazolium bromide (MTT; 1 mg/ml in Dulbecco's phosphate buffer saline) for 4 hr. at 37° C. The resulting purple formazan precipitate was solubilized with […] of 0.04 N HCl in isopropyl alcohol. Absorbance was read in a Titertek Multiskan MCC scanning well spectrophotometer (Flow Laboratories) at a test wavelength of 570 nm and a reference wavelength of 630 nm.
The absorbances were stored on a floppy disk on a IBM-XT and uploaded on to a VAX computer. The ID50 values were determined by a computer program that fit all of the data (8 determinations per concentration and 12 concentrations per test analog) to the following equation:
Y=((Am-Ao)/(1+(X/ID50)n))+Ao
Am=absorbance of the control cells
Ao=absorbance of the cells in the presence of highest drug conc.
ID50 =dose of drug that inhibits the growth of cells to one half that of the control cells

[2] = system: B16F10 melanoma; assay: Tumor Cell Clearance Test B16F10 Melanoma; assay type: in vivo, mouse; settings: for CPM/Lung (Mean + SEM): labelled B16F10 cells i.v. 24 h later, lungs counted 18 h later; for CPM/Lung (Mean + SEM) / Treated/Control: N=6; for Treated/Control: T/C <0.40 considered positive
From the text: One common route of cancer spread is through the blood. Very few cancer cells survive this hostile environment to go on and form metastases; NK cells and macrophages are believed to play an important role in controlling this hematogenous spread (Hanna, N. Cancer Research, 42:1337, 1982). Following the injection of various immunomodulators, macrophages and NK cells can be removed and shown to kill tumor cells in tissue culture. […] In the tumor cell clearance assay detailed below, radiolabelled tumor cells are injected intravenously (i.v.) into mice injected with an immunomodulator one day earlier. A decreased number of tumor cells, as reflected by a decreased amount of radioactivity remaining in the lungs, is used as an endpoint.
The B16 tumor line established from melanoma tumor which arose spontaneously on the skin at the base of the ear in a C57BL mouse. The B16F10 tumor subline was derived from the parent B16 line by selection for its ability to form lung tumors […] after i.v. injection and was subsequently established in vitro after 10 cycles of lung metastasis formation (Fidler, Eur. J. Cancer 9:223, 1973). The B16F10 tumor line is maintained by serial passage in vitro.
On day 0 female mice are injected intraperitoneally (i.p.) with test compound (6 mice/group) or vehicle alone (10 mice/group). Twenty-four hours later all mice are injected intravenously with 100,000 [^125 I] Iododeoxyuridine labelled B16F10 melanoma cells in 0.2 mL. Eighteen hours later mice are sacrificed and lungs removed and counted on a gamma counter.
Control and experimental group mean values are compared to the vehicle control using a Student's t-test. Poly I:C is an immunostimulant which activates macrophages and NK cells to kill and clear tumor cells faster and thus results in fewer cpm/lung. Statistical significance is set at p<0.05, and compounds with treated/control (T/C) values of <0.40 are considered positive.

Molecule: Poly I:C [reference compound]
CPM/Lung (Mean + SEM) ([2]; 5 mg/kg i.p. on day 0): 1044 + 87 CPM/Lung
Treated/Control ([2]; 5 mg/kg i.p., *p < 0.001 compared to vehicle control): 0.03

Molecule: CCN(CCCCN(CC)CCCN1C(=O)c2ccc3c4c(ccc(c24)C1=O)CC3)CCCN1C(=O)c2ccc3c4c(ccc(c24)C1=O)CC3 [Example 3, 1,4-Bis-3-(1,3,6,7-tetrahydro-1,3-dioxo-2H-indeno6,7,1-def]isoquinoline-2-yl)-N-ethyl-propylamino]butane dihydrochloride]
IC50 ([1]; Mus musculus, L1210, 72 h): 0.022 µM
CPM/Lung (Mean + SEM) ([2]; 6.25 mg/kg i.p. on day 0): 27953 + 2567 CPM/Lung
Treated/Control ([2]; 6.25 mg/kg i.p.): 0.90
CPM/Lung (Mean + SEM) ([2]; 12.5 mg/kg i.p. on day 0): 24905 + 2497 CPM/Lung
Treated/Control ([2]; 12.5 mg/kg i.p.): 0.80
CPM/Lung (Mean + SEM) ([2]; 25 mg/kg i.p. on day 0): 6992 + 1417 CPM/Lung
Treated/Control ([2]; 25 mg/kg i.p., *p < 0.001 compared to vehicle control): 0.23
CPM/Lung (Mean + SEM) ([2]; 50 mg/kg i.p. on day 0): 3558 + 476 CPM/Lung
Treated/Control ([2]; 50 mg/kg i.p., *p < 0.001 compared to vehicle control): 0.11
activating nonspecific immune cells against tumor cells ([2]; result in words, mice, B16F10 tumor cell clearance): effective in activating nonspecific immune cells against the B16F10 melanoma

The remaining lines, values ahead:

IC50 ([1]; Mus musculus, L1210, 72 h): 3.01 µM
Molecule: O=C1c2ccc3c4c(ccc(c24)C(=O)N1CCCNCCCCNCCCN1C(=O)c2ccc4c5c(ccc(c25)C1=O)CC4)CC3 [Example 1, 1,4-Bis-[3-(1,3,6,7-tetrahydro-1,3-dioxo-2H-indeno[6,7,1-def]isoquinoline-2-yl)propyl)-amino]butane dihydromethanesulfonate]

IC50 ([1]; dihydrochloride, 4320 min): 1.72 µM
Molecule: O=C1c2ccc3c4c(ccc(c24)C(=O)N1CCCNCCCCNCCCN1C(=O)c2ccc4c5c(ccc(c25)C1=O)CC4)CC3 [Example 2, 1.4-Bis-[3 3.6 7-tetrahydro-1.3-dioxo-2H-indeno[6,7,1-def]isoquinoline-2-yl)propyl-amino]butane dihydrochloride]

IC50 ([1]; Mus musculus, L1210, 72 h): 0.29 µM
Molecule: O=C1c2ccc3c4c(ccc(c24)C(=O)N1CCCCNCCCN1C(=O)c2ccc4c5c(ccc(c25)C1=O)CC4)CC3 [Example 4, 4-3-(1,3,6,7-Tetrahydro-1,3-dioxo-2H-indeno6,7,1-def]isoquinoline-2-yl)propyl-amino1-1-(1,3,6,7-tetrahydro-1,3-dioxo-2H-indeno-6,7,1-def]isoquinoline-2-yl)butane methanesulfonate]

— US5086059A, “Bis-naphthalimides as anticancer agents” (Du Pont Merck Pharmaceutical Company, priority 1990, dated 1992)
